In patent US6861390B2, “Derivatives of UK-2A” (priority 2001, dated 2005):

Key:
[1] = system: Leptosphaeria nodorum (LEPTNO); assay: Glume Blotch of Wheat, whole plant 24 Hour Protectant (T2); details: Parastagonospora nodorum; wheat (cultivar Yuma), sprayed at 100 ppm, inoculated after 24 hours; read-out: T2 LEPTNO in vivo 1 Day Protectant, control of fungal infection
[2] = system: Phytophthora infestans (PHYTIN); assay: whole plant or invertebrate; details: in Solanum lycopersicum, 24 h, read-out: T3 PHYTIN in vivo 1 Day Protectant, control of fungal infection
[3] = system: Puccinia recondita (PUCCRT); assay: Brown Rust of Wheat, whole plant 24 Hour Protectant (T5); details: wheat (cultivar Yuma), sprayed at 100 ppm, inoculated after 24 hours, read-out: T5 PUCCRT in vivo 1 Day Protectant, control of fungal infection
[4] = system: Septoria tritici (SEPTTR); assay: Leaf Blotch of Wheat, whole plant 24 Hour Protectant (T6); details: Zymoseptoria tritici; wheat (cultivar Monon), sprayed at 100 ppm, inoculated after 24 hours; read-out: T6 SEPTTR in vivo 1 Day Protectant, control of fungal infection
[5] = system: Stagonospora nodorum (Leptosphaeria nodorum, LEPTNO); assay: microbe, parasite or virus in culture; assay type: cell-based; details: Parastagonospora nodorum, read-out: T7 LEPTNO in vitro Growth Inhibition
[6] = system: Phytophthora infestans (PHYTIN); assay: microbe, parasite or virus in culture; assay type: cell-based; details: in Secale cereale, read-out: T8 PHYTIN in vitro Growth Inhibition
[7] = system: Magnaporthe grisea (Pyricularia oryzae, PYRIOR); assay: microbe, parasite or virus in culture; assay type: cell-based; details: read-out: T9 PYRIOR in vitro Growth Inhibition
[8] = system: Rhizoctonia solani (RHIZSO); assay: microbe, parasite or virus in culture; assay type: cell-based; details: read-out: T10 RHIZSO in vitro Growth Inhibition
[9] = system: Mycosphaerella graminicola (Septoria tritici, SEPTTR); assay: microbe, parasite or virus in culture; assay type: cell-based; details: Zymoseptoria tritici, read-out: T11 SEPTTR in vitro Growth Inhibition
[10] = system: Ustilago maydis (USTIMA); assay: microbe, parasite or virus in culture; assay type: cell-based; details: Mycosarcoma maydis, read-out: T12 USTIMA in vitro Growth Inhibition
[11] = system: Erysiphe graminis (ERYSGT); assay: Powdery Mildew of Wheat, whole plant 24 Hour Protectant (T1); details: Blumeria graminis, in Triticum aestivum, read-out: T1 ERYSGT in vivo 1 Day Protectant, control of fungal infection

SMILES | pest or weed control at 100 ppm [1] [%] | pest or weed control at 100 ppm [2] [%] | pest or weed control at 100 ppm [3] [%] | pest or weed control at 100 ppm [4] [%] | inhibition at 25 ppm [5] [%] | inhibition at 25 ppm [6] [%] | inhibition at 25 ppm [7] [%] | inhibition at 25 ppm [8] [%] | inhibition at 25 ppm [9] [%] | inhibition at 25 ppm [10] [%] | melting point [°C] | pest or weed control at 100 ppm [11] [%]
CCOCCC(=O)OCOc1c(OC)ccnc1C(=O)N[C@H]1COC(=O)[C@H](Cc2ccccc2)[C@@H](OC(=O)C(C)C)[C@H](C)OC1=O [Compound 28] | 75 to 100 | < 25 | 75 to 100 | 75 to 100 | > 80 | < 80 | > 80 | > 80 | > 80 | > 80 | 50 to 55 | 25 to 74
COc1ccnc(C(=O)N[C@H]2COC(=O)[C@H](Cc3ccccc3)[C@@H](OC(=O)C(C)C)[C@H](C)OC2=O)c1OCOC(=O)c1ccccc1 [Compound 29] | 75 to 100 | < 25 | 75 to 100 | 75 to 100 | > 80 | < 80 | < 80 | < 80 | < 80 | < 80 | 65 to 70 | 25 to 74
CCOCC(=O)OCOc1c(OC)ccnc1C(=O)N[C@H]1COC(=O)[C@H](Cc2ccccc2)[C@@H](OC(=O)C(C)C)[C@H](C)OC1=O [Compound 31] | 75 to 100 | < 25 | 75 to 100 | 75 to 100 | > 80 | < 80 | > 80 | < 80 | < 80 | < 80 | 79 to 81 | 25 to 74
COc1ccnc(C(=O)N[C@H]2COC(=O)[C@H](Cc3ccccc3)[C@@H](OC(=O)C(C)C)[C@H](C)OC2=O)c1OCOC(=O)C1CCCC1 [Compound 33] | 75 to 100 | < 25 | 75 to 100 | 75 to 100 | > 80 | < 80 | > 80 | < 80 | < 80 | < 80 | 128 to 129 | 25 to 74
COC(=O)OCOc1c(OC)ccnc1C(=O)N[C@H]1COC(=O)[C@H](Cc2ccccc2)[C@@H](OC(=O)C(C)C)[C@H](C)OC1=O [Compound 44] | 75 to 100 | < 25 | 75 to 100 | 75 to 100 | > 80 | < 80 | < 80 | < 80 | > 80 | < 80 | 140 to 144 | 25 to 74
COc1ccnc(C(=O)N[C@H]2COC(=O)[C@H](Cc3ccccc3)[C@@H](OCC(C)C)[C@H](C)OC2=O)c1OCOC(C)=O [Compound 49] | 75 to 100 | 25 to 74 | 75 to 100 | 75 to 100 | > 80 | < 80 | > 80 | < 80 | > 80 | < 80 | 130 to 131 | 75 to 100
COc1ccnc(C(=O)N[C@H]2COC(=O)[C@H](Cc3ccccc3)[C@@H](OC3CCCC3)[C@H](C)OC2=O)c1OCOC(C)=O [Compound 50] | 75 to 100 | 25 to 74 | 75 to 100 | 75 to 100 | > 80 | < 80 | > 80 | < 80 | < 80 | < 80 | 130 to 132 | 25 to 74
